Laboratory results published in patent US8258134B2, “Pyridazinone glucokinase activators” (Hoffmann-La Roche Inc., priority 2008, dated 2012).

Target: T1, Recombinant human liver GK1 (GST-GK) (Homo sapiens, UniProt P35557)
T1 construct: made in house; host or cells: E. coli
T1 sequence (P35557 1-466 isoform P35557-2): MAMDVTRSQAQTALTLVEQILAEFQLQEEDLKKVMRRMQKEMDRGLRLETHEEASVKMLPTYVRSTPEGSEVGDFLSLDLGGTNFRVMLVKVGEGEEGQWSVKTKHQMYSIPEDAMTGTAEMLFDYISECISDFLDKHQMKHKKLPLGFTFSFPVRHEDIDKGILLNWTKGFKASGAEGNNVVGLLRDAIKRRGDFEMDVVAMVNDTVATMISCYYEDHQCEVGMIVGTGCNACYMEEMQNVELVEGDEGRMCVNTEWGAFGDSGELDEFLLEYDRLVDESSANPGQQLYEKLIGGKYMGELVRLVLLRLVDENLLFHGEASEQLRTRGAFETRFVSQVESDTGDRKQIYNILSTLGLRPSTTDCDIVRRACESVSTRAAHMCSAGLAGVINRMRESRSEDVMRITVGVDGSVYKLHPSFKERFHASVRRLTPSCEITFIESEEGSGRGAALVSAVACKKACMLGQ
Assay: Glucokinase in vitro assay (G6PDH-coupled NADH generation, OD340)
Type: biochemical
Settings: 5 mM D-glucose; for SC1.5 average (concentration of activator that produced a 50% increase in the activity of GK): 30° C., pH 7.1, 10% DMSO; for fold activation @ 30 uM: 30 uM test compound
Summary of the method: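 Activation readout is SC1.5, the activator concentration raising GK rate (OD340/min) 50% above 10% DMSO controls. The coupled reaction used GST-GK1 from E. coli, 5 mM glucose, 1 mM ATP, 1.8 mM NAD and 25 mM Hepes pH 7.1 at 30° C. Enzyme was added after a 10 min compound pre-incubation.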

| SC1.5 average (concentration of activator that produced a 50% increase in the activity of GK) | fold activation @ 30 uM | Structure (SMILES) |
| --- | --- | --- |
| 0.811 µM |  | CC(C)(O)Cn1ccc(NC(=O)C(CC2CCCCC2)n2ncc(Oc3ccc(OC(F)(F)F)cc3Cl)cc2=O)n1 (stereo not shown) [Example 119, 2-[4-(2-Chloro-4-trifluoromethoxy-phenoxy)-6-oxo-6H-pyridazin-1-yl]-3-cyclohexyl-N-[1-(2-hydroxy-2-methyl-propyl)-1H-pyrazol-3-yl]-propionamide] |
| 0.18 µM |  | CCOc1ccc(F)c(Oc2cnn(C(CC(C)C)C(=O)Nc3ccn(C[C@@H](O)CO)n3)c(=O)c2)c1F (stereo partly drawn) [Example 120, 2-[4-(3-ethoxy-2,6-difluoro-phenoxy)-6-oxo-6H-pyridazin-1-yl]-4-methyl-pentanoic acid [1-((R)-2,3-dihydroxy-propyl)-1H-pyrazol-3-yl]-amide] |
| 0.088 µM |  | CCOc1ccc(F)c(Oc2cnn(C(CC3CCOCC3)C(=O)Nc3ccn(C[C@@H](O)CO)n3)c(=O)c2)c1F (stereo partly drawn) [Example 121, N-[1-((R)-2,3-Dihydroxy-propyl)-1H-pyrazol-3-yl]-2-[4-(3-ethoxy-2,6-difluoro-phenoxy)-6-oxo-6H-pyridazin-1-yl]-3-(tetrahydro-pyran-4-yl)-propionamide] |
| > 30 µM | 1.36 fold | CC(C)CC(C(=O)Nc1ccn(C[C@@H](O)CO)n1)n1ncc(Nc2ccccc2Cl)cc1=O (stereo partly drawn) [Example 122, 2-[4-(2-Chloro-phenylamino)-6-oxo-6H-pyridazin-1-yl]-4-methyl-pentanoic acid [1-((R)-2,3-dihydroxy-propyl)-1H-pyrazol-3-yl]-amide] |
| 0.441 µM |  | CC(C)(O)Cn1ccc(NC(=O)C(CC2CCCC2)n2ncc(Sc3ccccc3)cc2=O)n1 (stereo not shown) [Example 123, 3-Cyclopentyl-N-[1-(2-hydroxy-2-methyl-propyl)-1H-pyrazol-3-yl]-2-(6-oxo-4-phenylsulfanyl-6H-pyridazin-1-yl)-propionamide] |
| 2.461 µM |  | CC(C)(O)Cn1ccc(NC(=O)C(CC2CCCC2)n2ncc([S+]([O-])c3ccccc3)cc2=O)n1 (stereo not shown) [Example 124, 2-(4-Benzenesulfinyl-6-oxo-6H-pyridazin-1-yl)-3-cyclopentyl-N-[1-(2-hydroxy-2-methyl-propyl)-1H-pyrazol-3-yl]-propionamide] |
| 2.611 µM |  | CC(C)(O)Cn1ccc(NC(=O)C(CC2CCCC2)n2ncc(S(=O)(=O)c3ccccc3)cc2=O)n1 (stereo not shown) [Example 125, 2-(4-Benzenesulfonyl-6-oxo-6H-pyridazin-1-yl)-3-cyclopentyl-N-[1-(2-hydroxy-2-methyl-propyl)-1H-pyrazol-3-yl]-propionamide] |
| 1.221 µM |  | CC(C)CC(C(=O)Nc1ccn(C[C@@H](O)CO)n1)n1ncc(Oc2cccc(C(F)(F)F)c2Cl)cc1=O (stereo partly drawn) [Example 126, 2-[4-(2-Chloro-3-trifluoromethyl-phenoxy)-6-oxo-6H-pyridazin-1-yl]-4-methyl-pentanoic acid [1-((R)-2,3-dihydroxy-propyl)-1H-pyrazol-3-yl]-amide] |
| 0.334 µM |  | COc1cccc(Oc2cnn(C(CC(C)C)C(=O)Nc3ccn(C[C@@H](O)CO)n3)c(=O)c2)c1Cl (stereo partly drawn) [Example 127, 2-[4-(2-Chloro-3-methoxy-phenoxy)-6-oxo-6H-pyridazin-1-yl]-4-methyl-pentanoic acid [1-((R)-2,3-dihydroxy-propyl)-1H-pyrazol-3-yl]-amide] |
| 0.093 µM |  | O=C(Nc1ccn(C[C@@H](O)CO)n1)C(CC1CCCC1)n1ncc(Oc2ccccc2Cl)cc1=O (stereo partly drawn) [Example 128, 2-[4-(2-Chloro-phenoxy)-6-oxo-6H-pyridazin-1-yl]-3-cyclopentyl-N-[1-((R)-2,3-dihydroxy-propyl)-1H-pyrazol-3-yl]-propionamide] |
| 1.006 µM |  | CC(C)(O)Cn1ccc(NC(=O)C(CC2CCOCC2)n2ncc(Oc3ccccc3Cl)c(Cl)c2=O)n1 (stereo not shown) [Example 129, 2-[5-Chloro-4-(2-chloro-phenoxy)-6-oxo-6H-pyridazin-1-yl]-N-[1-(2-hydroxy-2-methyl-propyl)-1H-pyrazol-3-yl]-3-(tetrahydro-pyran-4-yl)-propionamide] |
| 10.224 µM |  | CC(C)(O)Cn1ccc(NC(=O)C(CC2CCCCC2)n2ncc(Oc3ccc(OC(F)(F)F)cc3Cl)c(Cl)c2=O)n1 (stereo not shown) [Example 130, 2-[5-Chloro-4-(2-chloro-4-trifluoromethoxy-phenoxy)-6-oxo-6H-pyridazin-1-yl]-3-cyclohexyl-N-[1-(2-hydroxy-2-methyl-propyl)-1H-pyrazol-3-yl]-propionamide] |
| > 30 µM | 1.18 fold | CC(=O)OC(C)Cn1nc(NC(=O)C(CC2CCOCC2)n2ncc(Oc3c(F)cccc3F)cc2=O)cc1C (stereo not shown) [Example 131, Acetic acid 2-{3-[2-[4-(2,6-difluoro-phenoxy)-6-oxo-6H-pyridazin-1-yl]-3-(tetrahydro-pyran-4-yl)-propionylamino]-5-methyl-pyrazol-1-yl}-1-methyl-ethyl ester] |
| > 30 µM | 1.18 fold | Cc1cc(NC(=O)C(CC2CCOCC2)n2ncc(Oc3c(F)cccc3F)cc2=O)nn1CC(C)O (stereo not shown) [Example 132, 2-[4-(2,6-Difluoro-phenoxy)-6-oxo-6H-pyridazin-1-yl]-N-[1-(2-hydroxy-propyl)-5-methyl-1H-pyrazol-3-yl]-3-(tetrahydro-pyran-4-yl)-propionamide] |
| 0.135 µM |  | CC(C)(O)Cn1ccc(NC(=O)C(CC2CCCCC2)n2ncc(Oc3cccc4c3OCCO4)cc2=O)n1 (stereo not shown) [Example 133, 3-Cyclohexyl-2-[4-(2,3-dihydro-benzo[1,4]dioxin-5-yloxy)-6-oxo-6H-pyridazin-1-yl]-N-[1-(2-hydroxy-2-methyl-propyl)-1H-pyrazol-3-yl]-propionamide] |
| 0.693 µM |  | CC(C)CC(C(=O)Nc1ccn(CC(C)(C)O)n1)n1ncc(Oc2ccccc2Cl)cc1=O (stereo not shown) [Example 134, 2-[4-(2-Chloro-phenoxy)-6-oxo-6H-pyridazin-1-yl]-4-methyl-pentanoic acid [1-(2-hydroxy-2-methyl-propyl)-1H-pyrazol-3-yl]-amide] |
| 0.235 µM |  | CC(C)(O)Cn1ccc(NC(=O)C(CC2CCOCC2)n2ncc(Oc3ccccc3Cl)cc2=O)n1 (stereo not shown) [Example 135, 2-[4-(2-Chloro-phenoxy)-6-oxo-6H-pyridazin-1-yl]-N-[1-(2-hydroxy-2-methyl-propyl)-1H-pyrazol-3-yl]-3-(tetrahydro-pyran-4-yl)-propionamide] |
| 1.17 µM |  | CC(C)(O)Cn1ccc(NC(=O)C(CC2CCCCC2)n2ncc(Oc3ccccc3)c(Cl)c2=O)n1 (stereo not shown) [Example 136, 2-(5-Chloro-6-oxo-4-phenoxy-6H-pyridazin-1-yl)-3-cyclohexyl-N-[1-(2-hydroxy-2-methyl-propyl)-1H-pyrazol-3-yl]-propionamide] |
| 0.731 µM |  | CC(C)CC(C(=O)Nc1ccn(C[C@@H](O)CO)n1)n1ncc(Oc2ccccc2Cl)cc1=O (stereo partly drawn) [Example 137, 2-[4-(2-Chloro-phenoxy)-6-oxo-6H-pyridazin-1-yl]-4-methyl-pentanoic acid [1-((R)-2,3-dihydroxy-propyl)-1H-pyrazol-3-yl]-amide] |
